For one assay, the system named is RAW264.7. The experiment in a line: Anti-inflammatory activity in LPS induced mouse RAW264.7 cells assessed as inhibition of NO production. The format is functional, cell-based.
Another assay deals with U2OS. Nature of the assay: Synergistic cytotoxicity in human U2OS cells assessed as combination index in presence of doxorubicin. The format is functional.

Structures are written as SMILES. In brackets after ≈: the same amount, converted by molar mass.

One may read the IC50 as the concentration that gives 50% inhibition.

Regarding `C=C1C(=O)O[C@@H]2[C@@H]3[C@@H](C[C@@]4(O)[C@]3(O)CC[C@]43C(=O)C[C@H]4C(=C)CC[C@H]5C(=C)C(=O)O[C@@H]5[C@H]43)C(=C)CC[C@@H]12`, in the assay with RAW264.7, the IC50 came out at 2.41 µg/mL (≈ 4.76 µM).
On to `COC(=O)/C(C)=C1\C(=O)[C@H](O)[C@@]2(C)[C@@H]3C[C@@H]3[C@@]34CCC5=C6C3=C(C(=O)[C@H](O)[C@@]6(C)[C@@H]3C[C@H]53)[C@](C)(C(C)=O)[C@@H]1[C@@]24O`, for which the CI with U2OS is 1.12.

The values are drawn from ChEMBL document CHEMBL5244250, “Natural sesquiterpenoid oligomers: A chemical perspective” (Eur J Med Chem, 2020).
